Laboratory results: patent publication US9637496B2, “Substituted 7-azabicycles and their use as orexin receptor modulators” (priority 2013, dated 2017)
Read-outs that look alike come from different tables or passages of the source.

How the values were obtained:
[1] = target: human orexin 1 receptor (Homo sapiens (Human), UniProt O43613); test: Human orexin 1 receptor radioligand binding (competitive binding, CHO membranes)
[2] = target: human orexin 2 receptor (Homo sapiens (Human), UniProt O43614); test: Human orexin 2 receptor radioligand binding ([3H]-EMPA competition, HEK293 membranes)
[3] = target: rat orexin 1 receptor (Rattus norvegicus (Rat), UniProt P56718); test: Rat orexin 1 receptor radioligand binding (competitive binding, HEK293 membranes)
[4] = human orexin 2 receptor, Table 2, averages from between 2-20 runs, read-out: hOX2 Ki
[5] = rat orexin 1 receptor, Table 2, averages from between 2-20 runs, read-out: rOX1 Ki
[6] = human orexin 1 receptor, Table 2, averages from between 2-20 runs, read-out: hOX1 Ki

human orexin 2 receptor, sequence (O43614 whole entry): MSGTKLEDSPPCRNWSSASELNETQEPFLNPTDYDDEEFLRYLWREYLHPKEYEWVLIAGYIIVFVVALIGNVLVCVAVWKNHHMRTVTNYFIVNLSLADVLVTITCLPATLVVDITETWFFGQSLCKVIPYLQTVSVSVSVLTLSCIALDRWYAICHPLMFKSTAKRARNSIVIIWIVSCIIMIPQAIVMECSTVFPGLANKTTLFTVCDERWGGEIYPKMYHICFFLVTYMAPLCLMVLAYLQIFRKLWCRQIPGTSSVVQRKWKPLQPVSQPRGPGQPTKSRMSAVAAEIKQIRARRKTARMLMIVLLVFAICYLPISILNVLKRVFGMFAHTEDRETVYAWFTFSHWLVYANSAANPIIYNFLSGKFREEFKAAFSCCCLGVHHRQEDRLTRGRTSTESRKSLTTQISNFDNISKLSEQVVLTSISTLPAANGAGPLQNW
rat orexin 1 receptor, sequence (P56718 whole entry): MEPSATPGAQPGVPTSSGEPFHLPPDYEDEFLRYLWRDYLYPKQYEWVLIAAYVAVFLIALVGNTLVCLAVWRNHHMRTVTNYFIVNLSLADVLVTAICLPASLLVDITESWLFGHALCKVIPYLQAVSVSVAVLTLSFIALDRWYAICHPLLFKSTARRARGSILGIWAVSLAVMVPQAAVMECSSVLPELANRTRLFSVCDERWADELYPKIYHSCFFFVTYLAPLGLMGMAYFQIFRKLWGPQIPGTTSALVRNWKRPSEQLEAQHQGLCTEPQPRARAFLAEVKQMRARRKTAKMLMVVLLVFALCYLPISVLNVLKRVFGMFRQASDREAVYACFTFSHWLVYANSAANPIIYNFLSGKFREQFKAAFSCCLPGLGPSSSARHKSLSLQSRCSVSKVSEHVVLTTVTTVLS
human orexin 1 receptor, sequence (O43613 whole entry): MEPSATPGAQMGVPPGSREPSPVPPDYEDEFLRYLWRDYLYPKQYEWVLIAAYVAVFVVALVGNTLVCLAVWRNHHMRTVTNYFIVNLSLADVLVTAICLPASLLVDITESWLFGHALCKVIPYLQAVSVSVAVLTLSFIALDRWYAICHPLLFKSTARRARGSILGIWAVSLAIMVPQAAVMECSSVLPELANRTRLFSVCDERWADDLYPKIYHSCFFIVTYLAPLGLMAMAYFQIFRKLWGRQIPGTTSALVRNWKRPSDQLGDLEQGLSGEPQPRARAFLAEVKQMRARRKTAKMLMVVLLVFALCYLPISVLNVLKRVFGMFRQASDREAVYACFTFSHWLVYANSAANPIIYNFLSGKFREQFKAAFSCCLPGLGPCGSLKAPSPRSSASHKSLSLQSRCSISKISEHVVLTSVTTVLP

## O=C(c1cc(F)ccc1-n1nccn1)N1C2CCC1C(COc1ccc(F)cn1)C2 (racemic) [Example 30, (±)-(5-fluoro-2-(2H-1,2,3-triazol-2-yl)phenyl)(2-(((5-fluoropyridin-2-yl)oxy)methyl)-7-azabicyclo[2.2.1]heptan-7-yl)methanone]
[1]
  Ki: 60 nM
[2]; human orexin 2 receptor, Table 2, averages of 2-20 runs, read-out: hOX2 Ki
  Ki: 160 nM

## O=C(c1ccccc1-n1nccn1)N1C2CCC1C(Oc1ccc(C(F)(F)F)cn1)C2 (racemic) [Example 421]
[3]
  Ki: 205 nM
[1]
  Ki: 154 nM
[2]; [4]
  Ki: 4200 nM

## Cc1cccc(C(=O)N2C3CCC2C(Oc2ccc(C(F)(F)F)cn2)C3)c1-n1nccn1 (racemic) [Example 422]
[3]; [5]
  Ki: 91 nM
[1]; [6]
  Ki: 57 nM
[2]; [4]
  Ki: 2150 nM

## O=C(c1cccc(F)c1-n1nccn1)N1C2CCC1C(Oc1ccc(C(F)(F)F)cn1)C2 (racemic) [Example 423]
[3]
  Ki: 202 nM
[1]
  Ki: 174 nM
[2]
  Ki: 4870 nM

## O=C(c1cccc(F)c1-c1ncccn1)N1C2CCC1C(Oc1ccc(C(F)(F)F)cn1)C2 (racemic) [Example 429]
[3]
  Ki: 77 nM
[1]
  Ki: 120 nM
[2]; [4]
  Ki: 6300 nM

## O=C(c1ccc(F)cc1-c1ncccn1)N1C2CCC1C(Oc1ccc(C(F)(F)F)cn1)C2 (racemic) [Example 430]
[3]; [5]
  Ki: 245 nM
[1]; [6]
  Ki: 300 nM
[2]; [4]
  Ki: > 10000 nM

## O=C(c1c(F)cccc1-c1ncccn1)N1C2CCC1C(Oc1ccc(C(F)(F)F)cn1)C2 (racemic) [Example 431]
[3]
  Ki: 143 nM
[1]
  Ki: 180 nM
[2]
  Ki: 5100 nM

## O=C(c1ccccc1-c1ncccn1)N1C2CCC1C(Oc1ccc(C(F)(F)F)cn1)C2 (racemic) [Example 432]
[3]; [5]
  Ki: 147 nM
[1]; [6]
  Ki: 307 nM
[2]; [4]
  Ki: 6000 nM

## O=C(c1ccccc1-c1ncc(F)cn1)N1C2CCC1C(Oc1ccc(C(F)(F)F)cn1)C2 (racemic) [Example 433]
[3]
  Ki: 107 nM
[1]
  Ki: 73 nM
[2]; [4]
  Ki: 2500 nM

## O=C(c1cccc(F)c1-c1ncc(F)cn1)N1C2CCC1C(Oc1ccc(C(F)(F)F)cn1)C2 (racemic) [Example 434]
[3]
  Ki: 134 nM
[1]
  Ki: 172 nM
[2]
  Ki: > 10000 nM

## Cc1cccc(C(=O)N2C3CCC2C(Oc2ccc(C(F)(F)F)cn2)C3)c1-c1ncco1 (racemic) [Example 435]
[3]
  Ki: 50 nM
[1]
  Ki: 29 nM
[2]
  Ki: 520 nM

## O=C(c1cccc(F)c1-c1ncco1)N1C2CCC1C(Oc1ccc(C(F)(F)F)cn1)C2 (racemic) [Example 436]
[3]; [5]
  Ki: 143 nM
[1]; [6]
  Ki: 116 nM
[2]
  Ki: 3500 nM

## O=C(c1cccc(F)c1-n1nccn1)N1C2CCC1C(Oc1ccc(Br)cn1)C2 (racemic) [Example 440]
[3]; [5]
  Ki: 118 nM
[1]; [6]
  Ki: 100 nM
[2]; [4]
  Ki: 6000 nM

## Cc1cccc(C(=O)N2C3CCC2C(Oc2cnc(C(F)(F)F)cn2)C3)c1-n1nccn1 (racemic) [Example 444]
[3]
  Ki: 165 nM
[1]
  Ki: 237 nM
[2]
  Ki: 4200 nM

## O=C(c1cccc(F)c1-c1ncccn1)N1[C@@H]2CC[C@H]1[C@H](Nc1cnc(C(F)(F)F)cn1)C2 [Example 238, (3-fluoro-2-(pyrimidin-2-yl)phenyl)((1S,2R,4R)-2-((5-(trifluoromethyl)pyrazin-2-yl)amino)-7-azabicyclo[2.2.1]heptan-7-yl)methanone]
[3]
  Ki: 15 nM
[1]
  Ki: 15 nM
[2]
  Ki: 763 nM

## O=C(c1cccc(F)c1-c1ncccn1)N1[C@@H]2CC[C@H]1[C@H](Nc1ccc(C(F)(F)F)cn1)C2 [Example 279, (3-fluoro-2-(pyrimidin-2-yl)phenyl)((1S,2R,4R)-2-((5-(trifluoromethyl)pyridin-2-yl)amino)-7-azabicyclo[2.2.1]heptan-7-yl)methanone]
[3]
  Ki: 18 nM
[1]
  Ki: 9 nM
[2]
  Ki: 990 nM

## O=C(c1cccc(F)c1-c1ncco1)N1[C@@H]2CC[C@H]1[C@H](Nc1ccc(C(F)(F)F)cn1)C2 [Example 298, (3-fluoro-2-(oxazol-2-yl)phenyl)((1S,2R,4R)-2-((5-(trifluoromethyl)pyridin-2-yl)amino)-7-azabicyclo[2.2.1]heptan-7-yl)methanone]
[3]; [5]
  Ki: 18 nM
[1]; [6]
  Ki: 18 nM
[2]; [4]
  Ki: 500 nM

## Cc1cccc(C(=O)N2[C@@H]3CC[C@H]2[C@H](Nc2ccc(C(F)(F)F)cn2)C3)c1-c1ncccn1 [Example 299, (3-methyl-2-(pyrimidin-2-yl)phenyl)((1S,2R,4R)-2-((5-(trifluoromethyl)pyridin-2-yl)amino)-7-azabicyclo[2.2.1]heptan-7-yl)methanone]
[3]; [5]
  Ki: 16 nM
[1]; [6]
  Ki: 7 nM
[2]; [4]
  Ki: 234 nM

## O=C(c1cccc(Cl)c1-c1ncccn1)N1[C@@H]2CC[C@H]1[C@H](Nc1cnc(C(F)(F)F)cn1)C2 [Example 300, (3-chloro-2-(pyrimidin-2-yl)phenyl)((1S,2R,4R)-2-((5-(trifluoromethyl)pyrazin-2-yl)amino)-7-azabicyclo[2.2.1]heptan-7-yl)methanone]
[3]; read-out: rOX1 Ki
  Ki: 9 nM
[1]; read-out: hOX1 Ki
  Ki: 9 nM
[2]; [4]
  Ki: 93 nM

## Cc1cccc(C(=O)N2[C@@H]3CC[C@H]2[C@H](Nc2ccc(Br)cn2)C3)c1-c1ncco1 [Example 302, ((1S,2R,4R)-2-((5-bromopyridin-2-yl)amino)-7-azabicyclo[2.2.1]heptan-7-yl)(3-methyl-2-(oxazol-2-yl)phenyl)methanone]
[3]; read-out: rOX1 Ki
  Ki: 5 nM
[1]; read-out: hOX1 Ki
  Ki: 5 nM
[2]; [4]
  Ki: 188 nM

## O=C(c1cccc(F)c1-c1ncccn1)N1C2CCC1C(Nc1ccc(Br)cn1)C2 [Example 303, ((1S,2R,4R)-2-((5-bromopyridin-2-yl)amino)-7-azabicyclo[2.2.]heptan-7-yl)(3-fluoro-2-(pyrimidin-2-yl)phenyl)methanone]
[3]; read-out: rOX1 Ki
  Ki: 22 nM
[1]; read-out: hOX1 Ki
  Ki: 16 nM
[2]; [4]
  Ki: 1300 nM

## Cc1cccc(C(=O)N2[C@@H]3CC[C@H]2[C@H](Nc2ccc(Br)cn2)C3)c1-c1ncccn1 [Example 304, ((1S,2R,4R)-2-((5-bromopyridin-2-yl)amino)-7-azabicyclo[2.2.1]heptan-7-yl)(3-methyl-2-(pyrimidin-2-yl)phenyl)methanone]
[3]; [5]
  Ki: 12 nM
[1]; [6]
  Ki: 16 nM
[2]; [4]
  Ki: 455 nM

## O=C(c1cccc(F)c1-n1nccn1)N1[C@@H]2CC[C@H]1[C@H](Nc1ccc(Br)cn1)C2 [Example 305, ((1S,2R,4R)-2-((5-bromopyridin-2-yl)amino)-7-azabicyclo[2.2.1]heptan-7-yl)(3-fluoro-2-(2H-1,2,3-triazol-2-yl)phenyl)methanone]
[3]; read-out: rOX1 Ki
  Ki: 24 nM
[1]; read-out: hOX1 Ki
  Ki: 12 nM
[2]; [4]
  Ki: 980 nM

## Cc1cccc(C(=O)N2[C@@H]3CC[C@H]2[C@H](Nc2ccc(Br)cn2)C3)c1-n1nccn1 [Example 306, ((1S,2R,4R)-2-((5-bromopyridin-2-yl)amino)-7-azabicyclo[2.2.1]heptan-7-yl)(3-methyl-2-(2H-1,2,3-triazol-2-yl)phenyl)methanone]
[3]; read-out: rOX1 Ki
  Ki: 11 nM
[1]; read-out: hOX1 Ki
  Ki: 4 nM
[2]; [4]
  Ki: 396 nM

## Cc1cccc(C(=O)N2C3CCC2C(Nc2cnc(Br)cn2)C3)c1-c1ncco1 [Example 308, ((1S,2R,4R)-2-((5-bromopyrazin-2-yl)amino)-7-azabicyclo[2.2.]heptan-7-yl)(3-methyl-2-(oxazol-2-yl)phenyl)methanone]
[3]; [5]
  Ki: 6 nM
[1]; [6]
  Ki: 4 nM
[2]; [4]
  Ki: 173 nM

## O=C(c1cccc(F)c1-c1ncccn1)N1[C@@H]2CC[C@H]1[C@H](Nc1cnc(Br)cn1)C2 [Example 309, ((1S,2R,4R)-2-((5-bromopyrazin-2-yl)amino)-7-azabicyclo[2.2.1]heptan-7-yl)(3-fluoro-2-(pyrimidin-2-yl)phenyl)methanone]
[3]; read-out: rOX1 Ki
  Ki: 19 nM
[1]; read-out: hOX1 Ki
  Ki: 22 nM
[2]; [4]
  Ki: 1100 nM

## Cc1cccc(C(=O)N2[C@@H]3CC[C@H]2[C@H](Nc2cnc(Br)cn2)C3)c1-c1ncccn1 [Example 310, ((1S,2R,4R)-2-((5-bromopyrazin-2-yl)amino)-7-azabicyclo[2.2.1]heptan-7-yl)(3-methyl-2-(pyrimidin-2-yl)phenyl)methanone]
[3]; [5]
  Ki: 9 nM
[1]; [6]
  Ki: 7 nM
[2]; [4]
  Ki: 381 nM

## O=C(c1cccc(F)c1-n1nccn1)N1[C@@H]2CC[C@H]1[C@H](Nc1cnc(Br)cn1)C2 [Example 311, ((1S,2R,4R)-2-((5-bromopyrazin-2-yl)amino)-7-azabicyclo[2.2.1]heptan-7-yl)(3-fluoro-2-(2H-1,2,3-triazol-2-yl)phenyl)methanone]
[3]; read-out: rOX1 Ki
  Ki: 17 nM
[1]; read-out: hOX1 Ki
  Ki: 21 nM
[2]; [4]
  Ki: 1000 nM

## Cc1cccc(C(=O)N2[C@@H]3CC[C@H]2[C@H](Nc2cnc(Br)cn2)C3)c1-n1nccn1 [Example 312, ((1S,2R,4R)-2-((5-bromopyrazin-2-yl)amino)-7-azabicyclo[2.2.1]heptan-7-yl)(3-methyl-2-(2H-1,2,3-triazol-2-yl)phenyl)methanone]
[3]; read-out: rOX1 Ki
  Ki: 6 nM
[1]; read-out: hOX1 Ki
  Ki: 9 nM
[2]; [4]
  Ki: 360 nM

## Cc1cccc(C(=O)N2[C@@H]3CC[C@H]2[C@H](Nc2ncc(Br)cn2)C3)c1-c1ncco1 [Example 314, ((1S,2R,4R)-2-((5-bromopyrimidin-2-yl)amino)-7-azabicyclo[2.2.1]heptan-7-yl)(3-methyl-2-(oxazol-2-yl)phenyl)methanone]
[3]; read-out: rOX1 Ki
  Ki: 6 nM
[1]; read-out: hOX1 Ki
  Ki: 14 nM
[2]; [4]
  Ki: 349 nM

## O=C(c1cccc(F)c1-c1ncccn1)N1[C@@H]2CC[C@H]1[C@H](Nc1ncc(Br)cn1)C2 [Example 315, ((1S,2R,4R)-2-((5-bromopyrimidin-2-yl)amino)-7-azabicyclo[2.2.1]heptan-7-yl)(3-fluoro-2-(pyrimidin-2-yl)phenyl)methanone]
[3]; [5]
  Ki: 30 nM
[1]; [6]
  Ki: 52 nM
[2]; [4]
  Ki: 1850 nM

## Cc1ccc(-c2ncccn2)c(C(=O)N2[C@@H]3CC[C@H]2[C@H](Nc2ccc(C(F)(F)F)cn2)C3)n1 [Example 379, (6-methyl-3-(pyrimidin-2-yl)pyridin-2-yl)((1S,2R,4R)-2-((5-(trifluoromethyl)pyridin-2-yl)amino)-7-azabicyclo[2.2.1]heptan-7-yl)methanone]
[3]; read-out: rOX1 Ki
  Ki: 25 nM
[1]; read-out: hOX1 Ki
  Ki: 24 nM
